# Laboratory results as given in patent EP3319959B1, “HETERO-HALO INHIBITORS OF HISTONE DEACETYLASE” (Alkermes, Inc., priority 2015, dated 2017).
# pIC50: −log10 of the molar value.
# System: recombinant human HDACs
# Assay: HDAC enzymatic assay (LabChip capillary electrophoresis)
# Type: biochemical
# Settings: 5 nM HDAC enzyme, 1 uM substrate, 5 hours pre-incubation, 17 hours reaction at 25°C; isoform not given
# Description: All recombinant human HDACs were purchased from BPS Bioscience. The substrate, FAM-TSRHK(AC)KL-CONH, was synthesized at NanoSyn. Final assay reactions contained 100 mM HEPES (pH 7.5), 50 mM KCl, 0.1% BSA, 0.01% Triton X-100, 1% DMSO, 1 uM substrate and 5 nM HDAC enzyme. Enzyme and compounds were pre-incubated at 25°C for 5 hours and reactions were initiated by addition of substrate. 10 uL reactions were incubated for 17 hours at 25°C and terminated by the addition of 40 uL of buffer containing 100 mM HEPES (pH 7.5), 0.1% BSA, 0.01% Triton X-100 and 0.05% SDS. Substrate and product peptides present in each sample were separated electrophoretically using the LabChip 3000 capillary electrophoresis instrument. Change in the relative fluorescence intensity of the substrate and product peaks reflects enzyme activity. Reaction progress was determined as the product to sum ratio (PSR): P/(S+P), where P is the peak height of the product peptide and S is the peak height of the substrate peptide. Reactions were performed in duplicate at 12 concentrations, (3X serial dilutions starting at 30 uM). IC50 values were calculated using a 4 Parameter Logistic Model.
row,SMILES,pIC50
1,CN1CC(Cn2cc3c(n2)CN(C(=O)Nc2nc(-c4ccc(F)cc4)ccc2N)C3)C1 [Compound 245],6.30 to 7.00
2,Nc1ccc(-c2ccc(F)cc2)nc1NC(=O)N1CCN(C(=O)[C@@H]2C[C@H]2c2ccccc2)CC1 (stereo in doubt) [Compound 225],5.30 to 6.30
3,Nc1cn(-c2ccccc2)nc1NC(=O)N1CCN(C2COC2)CC1 [Compound 356],< 5.30
4,CN1CCN(Cc2cnc3c(c2)CN(C(=O)Nc2nc(-c4ccc(F)cc4)ccc2N)C3)CC1 [Compound 168],6.30 to 7.00
5,CN1CC=C(c2ccc3c(c2)CN(C(=O)Nc2nc(-c4ccc(F)cc4)ccc2N)C3)CC1 [Compound 362],6.30 to 7.00
6,CN1CC(n2cc3c(n2)CN(C(=O)Nc2nc(-c4ccc(F)cc4)ccc2N)C3)C1 [Compound 247],6.30 to 7.00
7,Nc1ccc(-c2ccc(F)cc2)nc1NC(=O)N1CC2CC(N3CCOCC3)CC2C1 (stereo not shown) [Compound 181],< 5.30
8,Nc1cn(-c2ccccc2)nc1NC(=O)C1CCN(C2COC2)CC1 [Compound 359],< 5.30
9,Nc1ccc(-c2ccccc2)nc1NC(=O)C1CCN(Cc2ccccc2F)CC1 [Compound 379],< 5.30
10,Nc1ccc(-c2ccccc2)nc1NC(=O)c1cn2c(n1)CNCC2 [Compound 208],5.30 to 6.30
11,Nc1ccc(-c2ccc(F)cc2)nc1NC(=O)N1CC2CC(NC3COC3)CC2C1 (stereo not shown) [Compound 172],5.30 to 6.30
12,CN1CCC(N2CCC(C(=O)Nc3nc(-c4ccc(F)cc4)ccc3N)CC2)CC1 [Compound 368],5.30 to 6.30
13,Nc1ccc(-n2cccn2)nc1NC(=O)C1CCN(Cc2ccccc2F)CC1 [Compound 370],< 5.30
14,Cn1cc(CN2CCCC3(CCN(C(=O)Nc4nn(-c5ccc(F)cc5)cc4N)C3)C2)cn1 (stereo not shown) [Compound 123],< 5.30
15,Nc1ccc(-c2cccnc2)nc1NC(=O)N1CCC2(CCCNC2)C1 (stereo not shown) [Compound 171],< 5.30
16,COC1CCN(C(=O)Nc2nc(-c3ccc(F)cc3)ccc2N)C1 (stereo not shown) [Compound 388],5.30 to 6.30
17,Nc1ccc(-n2cccn2)nc1NC(=O)N1Cc2cc(F)cnc2C1 [Compound 185],5.30 to 6.30
18,Nc1ccc(-c2ccc(F)cc2)nc1NC(=O)N1CC2CCCC2C1 (stereo not shown) [Compound 385],5.30 to 6.30
19,Nc1cn(-c2ccccc2)nc1NC(=O)N1Cc2ccc(CO)cc2C1 [Compound 350],5.30 to 6.30
20,CN1CCCC2(CCN(C(=O)Nc3nc(-c4cccnc4)ccc3N)C2)C1 (stereo not shown) [Compound 211],< 5.30
21,Nc1ccc(-c2ccc(F)cc2)nc1NC(=O)N1CCN2CCCC2C1 (stereo not shown) [Compound 224],< 5.30
22,Nc1ccc(-n2cccn2)nc1NC(=O)C1CN(Cc2ccccc2)C1 [Compound 205],< 5.30
23,Nc1ccc(-c2ccco2)nc1NC(=O)N1CC2CN(CCF)CC2C1 (stereo not shown) [Compound 174],< 5.30
24,CN(C)Cc1ccc2c(c1)CN(C(=O)Nc1nn(-c3ccccc3)cc1N)C2 [Compound 351],6.30 to 7.00
25,Nc1ccc(-c2ccc(F)cc2)nc1NC(=O)N1Cc2cc(F)cnc2C1 [Compound 186],5.30 to 6.30
26,CC(=O)N1CCC(C(=O)Nc2nc(-c3ccccc3)ccc2N)CC1 [Compound 380],< 5.30
27,Nc1ccc(-c2ccc(F)cc2)nc1NC(=O)[C@H]1[C@@H]2CN(C3COC3)C[C@@H]21 (stereo in doubt) [Compound 239],< 5.30

row,SMILES,pIC50
1,CC(=O)N1CCN(C(=O)Nc2nn(-c3ccccc3)cc2N)CC1 [Compound 360],< 5.30
2,CN1CC2CN(C(=O)Nc3nc(-n4cccn4)ccc3N)CC2C1 (stereo not shown) [Compound 184],< 5.30
3,CN1CC(N2C[C@@H]3[C@H](C2)[C@H]3C(=O)Nc2nc(-c3ccc(F)cc3)ccc2N)C1 (stereo in doubt) [Compound 241],< 5.30
4,CN1CC(CC(=O)Nc2nc(-c3ccc(F)cc3)ccc2N)C1 [Compound 376],< 5.30
5,CN(C)Cc1ccc2c(c1)CN(C(=O)Nc1nc(-c3cccs3)ccc1N)C2 [Compound 409],6.30 to 7.00
6,COCc1ccc2c(c1)CN(C(=O)Nc1nc(-c3cccnc3)ccc1N)C2 [Compound 393],5.30 to 6.30
7,CN1CCN(c2ccc3c(c2)CN(C(=O)Nc2nc(-c4ccc(F)cc4)ccc2N)C3)CC1 [Compound 374],6.30 to 7.00
8,Nc1ccc(-c2ccc(F)cc2)nc1NC(=O)N1CC2CN(CC3CCOCC3)CC2C1 (stereo not shown) [Compound 235],< 5.30
9,CN1CCC(c2ccc3c(c2)CN(C(=O)Nc2nn(-c4ccccc4)cc2N)C3)CC1 [Compound 383],6.30 to 7.00
10,CN1CCC2(CC1)CCN(C(=O)Nc1nc(-c3cccnc3)ccc1N)C2 [Compound 210],< 5.30
11,CN1CCc2sc(C(=O)Nc3nc(-c4ccc(F)cc4)ccc3N)nc2C1 [Compound 153],6.30 to 7.00
12,CN1CCN(c2cc3c(cn2)CN(C(=O)Nc2nc(-c4ccc(F)cc4)ccc2N)C3)CC1 [Compound 160],6.30 to 7.00
13,CN1CCN(Cc2ccc3c(c2)CN(C(=O)Nc2nn(-c4ccccc4)cc2N)C3)CC1 [Compound 353],5.30 to 6.30
14,Nc1ccc(-c2cccnc2)nc1NC(=O)N1Cc2cc(F)cnc2C1 [Compound 218],< 5.30
15,COCc1ccc2c(c1)CN(C(=O)Nc1nc(-c3ccc(F)cc3)ccc1N)C2 [Compound 396],6.30 to 7.00
16,CN1CC(C(=O)Nc2nc(-c3ccc(F)cc3)ccc2N)C1 [Compound 204],< 5.30
17,Nc1cn(-c2ccccc2)nc1NC(=O)N1CC2CCCC2C1 (stereo not shown) [Compound 384],< 5.30
18,Cc1ccc(C2CN(C(=O)Nc3nc(-c4ccc(F)cc4)ccc3N)C2)cc1 [Compound 170],5.30 to 6.30
19,Nc1cnc(-c2ccc(F)cc2)cc1NC(=O)N1Cc2cnc(N3CCC3)cc2C1 [Compound 254],5.30 to 6.30
20,CC(=O)N1CCN(CC(=O)Nc2nc(-c3ccccc3)ccc2N)CC1 [Compound 196],< 5.30
21,Nc1ccc(-n2cccn2)nc1NC(=O)N1CC2CC(N3CC(F)C3)CC2C1 (stereo not shown) [Compound 190],< 5.30
22,Nc1ccc(-c2ccc(F)cc2)nc1NC(=O)N1Cc2cccc(F)c2C1 [Compound 259],6.30 to 7.00
23,Nc1ccc(-c2ccc(F)cc2)nc1NC(=O)N1Cc2cnc(C3CC3)cc2C1 [Compound 255],6.30 to 7.00
24,COc1cccc(CN2CCCC3(CCN(C(=O)Nc4nc(-c5ccc(F)cc5)ccc4N)C3)C2)c1 (stereo not shown) [Compound 222],< 5.30
25,Nc1ccc(-n2cccn2)nc1NC(=O)N1CC2CN(CCF)CC2C1 (stereo not shown) [Compound 167],< 5.30
26,COCC1CCN(C(=O)Nc2nc(-c3ccc(F)cc3)ccc2N)C1 (stereo not shown) [Compound 389],< 5.30
27,Nc1ccc(-c2ccccc2)nc1NC(=O)N1CCn2ccnc2C1 [Compound 197],< 5.30

row,SMILES,pIC50
1,CN1CCN(C(=O)Nc2nn(-c3ccccc3)cc2N)CC1 [Compound 361],< 5.30
2,Nc1ccc(-c2cccnc2)nc1NC(=O)N1CCCC1 [Compound 221],< 5.30
3,Nc1ccc(-c2ccccc2)nc1NC(=O)C1CCN(C2COC2)CC1 [Compound 381],< 5.30
4,Nc1ccc(-c2ccco2)nc1NC(=O)N1CC2CN(Cc3ccccc3F)CC2C1 (stereo not shown) [Compound 175],< 5.30
5,Nc1ccc(-c2ccccc2)nc1NC(=O)C1CN(c2ccccn2)C1 [Compound 195],< 5.30
6,CN1CCC(COC(=O)Nc2nc(-c3cccnc3)ccc2N)CC1 [Compound 375],< 5.30
7,Nc1ccc(-c2ccc(F)cc2)nc1NC(=O)N1CC2COCC2C1 (stereo not shown) [Compound 392],5.30 to 6.30
8,CN1CCN(c2ccc3c(c2)CN(C(=O)Nc2nn(-c4ccccc4)cc2N)C3)CC1 [Compound 352],5.30 to 6.30
9,CN1CCC(N2CC3CN(C(=O)Nc4nc(-c5ccc(F)cc5)ccc4N)CC3C2)CC1 (stereo not shown) [Compound 169],5.30 to 6.30
10,Nc1ccc(-c2ccc(OC(F)F)cc2)nc1NC(=O)N1CCCC1 [Compound 232],5.30 to 6.30
11,Cn1cc(CN2CCCC3(CCN(C(=O)Nc4nc(-c5ccc(F)cc5)ccc4N)C3)C2)cn1 (stereo not shown) [Compound 223],< 5.30
12,CN1CCC(c2ccc3c(c2)CN(C(=O)Nc2nc(-c4ccc(F)cc4)ccc2N)C3)CC1 [Compound 387],5.30 to 6.30
13,COc1cc2c(cn1)CN(C(=O)Nc1nc(-c3ccc(F)cc3)ccc1N)C2 [Compound 260],6.30 to 7.00
14,Nc1cn(-c2ccc(F)cc2)nc1NC(=O)N1CCN(C(=O)[C@@H]2C[C@H]2c2ccccc2)CC1 [Compound 125],5.30 to 6.30
15,CN1CCN(C2CC3CN(C(=O)Nc4nc(-c5ccc(F)cc5)ccc4N)CC3C2)CC1 (stereo not shown) [Compound 179],5.30 to 6.30
16,CN(C)Cc1ccc2c(c1)CN(C(=O)Nc1nc(-c3ccc(Cl)s3)ccc1N)C2 [Compound 401],< 5.30
17,CN1CCC(C(=O)Nc2nn(-c3ccccc3)cc2N)CC1 [Compound 354],< 5.30
18,Nc1ccc(-c2ccc(F)cc2)nc1NC(=O)N1CC2CN(C3COC3)CC2C1 (stereo not shown) [Compound 203],< 5.30
19,CN1CC(n2ncc3c2CN(C(=O)Nc2nc(-c4ccc(F)cc4)ccc2N)C3)C1 [Compound 246],< 5.30
20,Nc1ccc(-c2ccccc2)nc1NC(=O)C1CCN(Cc2cccnc2)CC1 [Compound 377],< 5.30
21,Nc1ccc(-c2ccco2)nc1NC(=O)C1CN(c2ccccn2)C1 [Compound 193],< 5.30
22,Nc1ccc(-c2ccccc2)nc1NC(=O)N1CCn2cncc2C1 [Compound 212],< 5.30
23,CN(C)CCN1CC2CN(C(=O)Nc3nc(-c4ccc(F)cc4)ccc3N)CC2C1 (stereo not shown) [Compound 166],5.30 to 6.30
24,Nc1ccc(-n2cccn2)nc1NC(=O)N1CC2CN(Cc3ccccc3F)CC2C1 (stereo not shown) [Compound 177],< 5.30
25,CN1CC2CN(C(=O)Nc3nc(-c4ccc(F)cc4)ccc3N)CC2C1 (stereo not shown) [Compound 201],< 5.30
